pIC50: −log10 of the molar value.
How the values were obtained:
[1] = molecular target: Dual specificity calcium/calmodulin-dependent 3',5'-cyclic nucleotide phosphodiesterase 1A (Homo sapiens, UniProt P54750); assay: (§1) Enzyme Assay: Assay: The following phosphodiesterase enzymes may be used: 3′,5′-cyclic-nucleotide-specific bovine brain phosphodiesterase (Sigma, St. Louis, Mo.) (predominantly PDE1B) and recombinant full length human PDE1A and PDE1B (r-hPDE1A and r-hPDE1B respectively) which may be produced e.g., in HEK or SF9 cells by one skilled in the art. The PDE1 enzyme is reconstituted with 50% glycerol to 2.5 U/ml. One unit of enzyme will hydrolyze 1.0 μmole of 3′,5′-cAMP to 5′-AMP per min at pH 7.5 at 30° C. One part enzyme is added to 1999 parts reaction buffer (30 μM CaCl2, 10 U/ml of calmodulin (Sigma P2277), 10 mM Tris-HCl pH 7.2, 10 mM MgCl2, 0.1% BSA, 0.05% NaN3) to yield a final concentration of 1.25 mU/ml. 99 μl of diluted enzyme solution is added into each well in a flat bottom 96-well polystyrene plate to which 1 μl of test compound dissolved in 100% DMSO is added. The compounds are mixed and pre-incubated with the enzyme for 10 min at room temperature.
Sequence of Dual specificity calcium/calmodulin-dependent 3',5'-cyclic nucleotide phosphodiesterase 1A (P54750 whole entry): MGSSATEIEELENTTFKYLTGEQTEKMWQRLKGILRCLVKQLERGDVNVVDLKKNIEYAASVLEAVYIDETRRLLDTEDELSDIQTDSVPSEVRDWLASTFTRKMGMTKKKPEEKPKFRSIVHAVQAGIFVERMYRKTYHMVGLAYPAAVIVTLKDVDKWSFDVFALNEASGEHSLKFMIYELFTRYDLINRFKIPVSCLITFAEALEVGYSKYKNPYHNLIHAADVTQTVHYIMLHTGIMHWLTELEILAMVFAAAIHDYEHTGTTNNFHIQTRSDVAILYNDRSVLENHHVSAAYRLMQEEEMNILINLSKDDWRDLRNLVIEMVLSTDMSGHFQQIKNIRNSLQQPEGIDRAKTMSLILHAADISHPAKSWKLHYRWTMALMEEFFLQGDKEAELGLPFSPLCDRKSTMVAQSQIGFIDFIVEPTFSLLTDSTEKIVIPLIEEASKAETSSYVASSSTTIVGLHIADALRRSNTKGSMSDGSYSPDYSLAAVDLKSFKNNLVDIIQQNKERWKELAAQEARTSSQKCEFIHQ

[2] = molecular target: Dual specificity calcium/calmodulin-dependent 3',5'-cyclic nucleotide phosphodiesterase 1B (Homo sapiens, UniProt Q01064); assay: as §1
Sequence of Dual specificity calcium/calmodulin-dependent 3',5'-cyclic nucleotide phosphodiesterase 1B (Q01064 whole entry): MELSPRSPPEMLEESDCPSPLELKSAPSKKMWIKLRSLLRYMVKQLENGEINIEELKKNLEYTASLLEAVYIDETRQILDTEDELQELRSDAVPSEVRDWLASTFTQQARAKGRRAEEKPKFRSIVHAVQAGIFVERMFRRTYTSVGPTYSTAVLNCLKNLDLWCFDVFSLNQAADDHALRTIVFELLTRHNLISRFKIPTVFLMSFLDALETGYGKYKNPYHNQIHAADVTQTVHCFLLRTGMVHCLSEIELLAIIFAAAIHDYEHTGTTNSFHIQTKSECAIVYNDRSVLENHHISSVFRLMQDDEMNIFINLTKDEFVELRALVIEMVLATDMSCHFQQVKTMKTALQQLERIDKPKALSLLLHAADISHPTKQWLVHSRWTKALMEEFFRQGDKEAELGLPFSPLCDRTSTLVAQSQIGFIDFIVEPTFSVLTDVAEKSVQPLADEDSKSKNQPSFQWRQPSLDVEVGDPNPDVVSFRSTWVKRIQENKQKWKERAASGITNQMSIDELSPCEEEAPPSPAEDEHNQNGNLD

CC(C)Sc1c2c(nn1Cc1ccc(-c3cccc(F)n3)cc1)N1CC(C)(C)N=C1N(C)C2=O
pIC50 [1]: 8.30 | pIC50 [2]: 5.52
